The values below come from patent US10888544B2, “Methods for treating Gaucher disease” (Genzyme Corporation, priority 2017, dated 2021).

The structures appear in SMILES notation.

The data set can be described thus: Safety evaluation in the hepatic impairment single dose study (Example 1). It counts as in vivo, human. The method, then:
The safety evaluation was based upon the review of the individual values (clinically significant abnormalities) and descriptive statistics (summary tables). All safety analyses were performed using the safety population and were based on the on-treatment phase (defined as the time from investigational medicinal product [IMP] administration up to Day 3 visit, inclusive). For laboratory, vital signs, and ECG data, potentially clinically significant abnormalities (PCSAs) were analyzed using the 24 May 2014 version of the PCSA list. Electrocardiogram parameters were obtained from automatic reading of 12-lead ECGs and were analyzed as raw parameter values and change from baseline. For vital signs, raw data and changes from baseline were summarized using descriptive statistics by population group and time point. All individual data for biochemistry, hematology, and qualitative urinary tests were listed.
Adverse events were coded according to the Medical Dictionary for Regulatory Activities (MedDRA v.19.1) and classified into predefined standard categories according to chronological criteria: • Pretreatment adverse events (AEs), defined as AEs that occurred, worsened (according to Investigator opinion), or became serious during the pretreatment phase (defined as the time between the signature of the informed consent and IMP administration [excluded]); • Treatment-emergent AEs (TEAEs), defined as AEs that occurred, worsened, or became serious during the on-treatment phase; • Posttreatment AEs, defined as AEs that occurred, worsened, or became serious during the posttreatment phase (defined as the time after Day 3 visit through completion of EOS).
All AEs reported in the study were listed and sorted by subject, onset date and time. The number and percentage of subjects with TEAEs were listed by population group, primary system-organ class (SOC), preferred term (PT), and AE diagnosis.

[1] abbreviates: hepatic impairment study, single dose.

`CCCCCCCC(=O)N[C@H](CN1CCCC1)[C@H](O)c1ccc2c(c1)OCCO2` [eliglustat, N-((1R,2R)-1-(2,3-dihydrobenzo[b][1,4]dioxin-6-yl)-1-hydroxy-3-(pyrrolidin-1-yl)propan-2-yl)octanamide]: where the note is “all groups (healthy, mild HI, moderate HI), in 5 subjects, single dose”, the “Total number of mild TEAEs observed” value is given as 6. Under setting [1], the “Deaths or other significant AEs” value was “no deaths or other significant AEs”; the Serious adverse events entry is on record as “No serious adverse events were reported”; the “Treatment emergent PCSA (laboratory values, vital signs, ECGs)” value is listed as “no treatment emergent PCSA that were clinically relevant”. Moreover, the “TEAEs considered related to study drug by the investigator” value (in 3 subjects: dysgeusia in 2 moderate HI subjects, nausea and headache in 1 healthy subject) is “Four”.
